The values below come from patent US4599414A, “Theophylline derivatives” (Eisai Co., Ltd., priority 1979, dated 1986).

Where two headings read alike, the source gives them in different places.

For this assay, the system named is contractile response to histamine, terminal ileum. As to the kind of experiment: Antihistaminic action: inhibition of contractile response to histamine (10^-6 M) in isolated terminal ileum. The format is cell-based, guinea-pig. Particulars: for inhibition at 0.1 µM / inhibition at 0.01 µM / inhibition at 1 µM: Cavia porcellus. Here is the method:
The terminal ileum was removed from a starved guinea-pig and set up in an organ bath containing Tyrode solution maintained at 26° C. Contractile tension was recorded isometrically under a tension of 1.5 g with a strain-gauge transducer. After obtaining control response to histamine (10^-6 M), antagonists were added to the bath and allowed to remain in contact with the tissue for 3 minutes. Contractile response to histamine in the presence of the antagonists was recorded and the inhibitory rate was calculated according to the following equation: [formula] The tissue was then washed at 10 min intervals with fresh Tyrode solution. Contractile response to histamine was tested after each wash in order to study the duration of action of the antagonists.

Setting [1] is: 0.05 h, antagonist 10^-7 M, 3 min contact, before washing, read-out: Inhibitory rate before washing.
Where [2] appears, read: 0.05 h, antagonist 10^-8 M, 3 min contact, before washing, read-out: Inhibitory rate before washing.
Setting [3] is: antagonist 10^-7 M, after 1st washing, read-out: Inhibitory rate after 1st washing.
Setting [4] is: antagonist 10^-7 M, after 2nd washing, read-out: Inhibitory rate after 2nd washing.
The mark [5] stands for this setting: antagonist 10^-7 M, after 3rd washing, read-out: Inhibitory rate after 3rd washing.
Setting [6] is: antagonist 10^-8 M, after 1st washing, read-out: Inhibitory rate after 1st washing.
The mark [7] stands for this setting: 0.05 h, read-out: Inhibitory rate before washing.
Setting [8] is: read-out: Inhibitory rate after 1st washing.
Where [9] appears, read: read-out: Inhibitory rate after 2nd washing.
[10] abbreviates: 0.05 h, antagonist 10^-6 M, 3 min contact, before washing, read-out: Inhibitory rate before washing.
[11] abbreviates: antagonist 10^-6 M, after 1st washing, read-out: Inhibitory rate after 1st washing.
[12] abbreviates: antagonist 10^-6 M, after 2nd washing, read-out: Inhibitory rate after 2nd washing.
The mark [13] stands for this setting: antagonist 10^-6 M, after 3rd washing, read-out: Inhibitory rate after 3rd washing.
Where [14] appears, read: antagonist 10^-8 M, after 2nd washing, read-out: Inhibitory rate after 2nd washing.
Setting [15] is: antagonist 10^-8 M, after 3rd washing, read-out: Inhibitory rate after 3rd washing.

On to `CC(CN1c2ccccc2Sc2ccccc21)N(C)C` (stereo not drawn) [(1), Promethazine, reference compound], for which the inhibition at 0.1 µM reads like this: under setting [1], 87%; under setting [3], 77%; under setting [4], 56%; under setting [5], 37%. Besides, the inhibition at 0.01 µM runs as follows: under setting [2], 37%; under setting [6], 44%.

For `CN1CCCN(C(c2ccccc2)c2ccc(Cl)cc2)CC1` (stereo not drawn) [(3), Homochlorcyclizine, reference compound], the inhibition at 0.01 µM stood at 13% under setting [7], 46% under setting [8] and 42% under setting [9]. For the same molecule, the inhibition at 0.1 µM under setting [7] was found to be 88%, the inhibition at 0.1 µM under setting [8] amounted to 84%, the inhibition at 0.1 µM under setting [9] was found to be 63% and the inhibition at 0.1 µM (read-out: Inhibitory rate after 3rd washing) was found to be 55%. In addition, where the note is “antagonist 10^-7 M”, the “Inhibitory rate after 4th washing” value worked out at 39%. In addition, the “Inhibitory rate after 5th washing” value (antagonist 10^-7 M) stood at 25%. Further, under “antagonist 10^-7 M”, the “Inhibitory rate after 6th washing” value stood at 33%.

Turning to `Cn1c(=O)c2c(ncn2CCCN2CCCN(c3ccccc3)CC2)n(C)c1=O` [(4)], the inhibition at 1 µM came out at 100% under setting [10], 10% under setting [11] and 0% under setting [12]. In addition, the inhibition at 0.1 µM under setting [1] worked out at 64%, the inhibition at 0.1 µM under setting [3] amounted to 4% and the inhibition at 0.1 µM under setting [4] came to 0%. For the same molecule, the inhibition at 0.01 µM reads like this: under setting [2], 12%; under setting [6], 0%.

Consider `Cn1c(=O)c2c(ncn2CCCN2CCCN(Cc3ccc(Cl)cc3)CC2)n(C)c1=O` [(5)], for which the inhibition at 1 µM is 100% under setting [10], 84% under setting [11], 65% under setting [12] and 58% under setting [13]. For the same molecule, the inhibition at 0.1 µM is, setting by setting: under setting [1], 100%; under setting [3], 64%; under setting [4], 31%; under setting [5], 20%. In addition, the inhibition at 0.01 µM under setting [2] turned out to be 2%, the inhibition at 0.01 µM under setting [6] amounted to 7% and the inhibition at 0.01 µM under setting [14] worked out at 4%. In addition, where the note is “antagonist 10^-7 M”, the “Inhibitory rate after 5th washing” value is 0%.

As to `Cn1c(=O)c2c(ncn2CCCN2CCCN(Cc3ccccc3Cl)CC2)n(C)c1=O` [(6)], the inhibition at 1 µM runs as follows: under setting [10], 100%; under setting [11], 100%. For the same molecule, the inhibition at 0.1 µM by setting is: under setting [1], 80%; under setting [3], 73%; under setting [4], 58%; under setting [5], 47%. Also, the inhibition at 0.01 µM by setting is: under setting [2], 14%; under setting [6], 14%; under setting [14], 14%; under setting [15], 6%. The “Inhibitory rate after 4th washing” value (antagonist 10^-7 M) was 38%. The “Inhibitory rate after 5th washing” value (antagonist 10^-7 M) came out at 29%. Further, for the setting “antagonist 10^-7 M”, the “Inhibitory rate after 6th washing” value is 29%. For the same molecule, the “Inhibitory rate after 7th washing” value (antagonist 10^-7 M) amounted to 20%.

With `Cn1c(=O)c2c(ncn2CCCN2CCCN(Cc3ccc(Cl)cc3Cl)CC2)n(C)c1=O` [(7)], the inhibition at 1 µM is, setting by setting: under setting [10], 96%; under setting [11], 100%; under setting [12], 100%; under setting [13], 100%. Further, the inhibition at 0.1 µM runs as follows: under setting [1], 78%; under setting [3], 59%; under setting [4], 52%; under setting [5], 30%. For the same molecule, the inhibition at 0.01 µM under setting [2] is 6%, the inhibition at 0.01 µM under setting [6] worked out at 42%, the inhibition at 0.01 µM under setting [14] was determined as 46% and the inhibition at 0.01 µM under setting [15] was determined as 46%. Further, the “Inhibitory rate after 4th washing” value (antagonist 10^-6 M) is recorded as 83%. The “Inhibitory rate after 5th washing” value reads like this: (antagonist 10^-6 M) 87%; (antagonist 10^-8 M) 32%. Moreover, the “Inhibitory rate after 6th washing” value runs as follows: (antagonist 10^-6 M) 85%; (antagonist 10^-8 M) 18%. Where the note is “antagonist 10^-8 M”, the “Inhibitory rate after 7th washing” value was determined as 14%.

For `Cn1c(=O)c2c(ncn2CCCN2CCCN(Cc3ccc(Cl)c(Cl)c3)CC2)n(C)c1=O` [(8)], the inhibition at 0.1 µM under setting [1] amounted to 65%, the inhibition at 0.1 µM under setting [3] amounted to 55%, the inhibition at 0.1 µM under setting [4] came to 28% and the inhibition at 0.1 µM under setting [5] stood at 28%. Besides, the inhibition at 0.01 µM is, setting by setting: under setting [2], 11%; under setting [6], 29%; under setting [14], 19%. For the same molecule, the “Inhibitory rate after 4th washing” value (antagonist 10^-7 M) was 20%.

Turning to `Cn1c(=O)c2c(ncn2CCCN2CCCN(Cc3ccc(F)cc3)CC2)n(C)c1=O` [(9)], the inhibition at 1 µM under setting [10] was found to be 100%, the inhibition at 1 µM under setting [11] was determined as 27%, the inhibition at 1 µM under setting [12] was determined as 5% and the inhibition at 1 µM under setting [13] is 0%. In addition, the inhibition at 0.1 µM was found to be 77% under setting [1], 20% under setting [3], 13% under setting [4] and 5% under setting [5]. In addition, the inhibition at 0.01 µM under setting [2] is 10%, the inhibition at 0.01 µM under setting [6] came to 7%, the inhibition at 0.01 µM under setting [14] is 7% and the inhibition at 0.01 µM under setting [15] came out at 1%.

With `Cn1c(=O)c2c(ncn2CCCN2CCCN(Cc3ccc([N+](=O)[O-])cc3)CC2)n(C)c1=O` [(10)], the inhibition at 1 µM is, setting by setting: under setting [10], 100%; under setting [11], 46%; under setting [12], 19%. The inhibition at 0.1 µM came to 65% under setting [1] and 16% under setting [3]. Besides, the inhibition at 0.01 µM by setting is: under setting [2], 21%; under setting [6], 12%; under setting [14], 0%.

For the molecule `Cn1c(=O)c2c(ncn2CCCN2CCCN(Cc3ccccc3)CC2)n(C)c1=O` [(11)], the inhibition at 0.1 µM reads like this: under setting [1], 78%; under setting [3], 10%; under setting [4], 4%; under setting [5], 0%. The inhibition at 0.01 µM reads like this: under setting [2], 0%; under setting [6], 0%.
